Results published in the PolyMetriX glass transition set.
± gives the standard deviation of the reports.

| Structure (SMILES) | glass transition temperature [°C] |
| --- | --- |
| *CCCP(C)(=O)CCCNC(=O)CCCCC(=O)N* (repeat unit) | 33.00 |
| *c1ccc2c(c1)C(=O)N(c1cccc(C(=O)Nc3ccc(Oc4ccc(Oc5ccc(NC(=O)c6cccc(N7C(=O)c8ccc(C(*)(C(F)(F)F)C(F)(F)F)cc8C7=O)c6)cc5)cc4)cc3)c1)C2=O (repeat unit) | 283.00 |
| *CC(*)(CC(=O)OC)C(=O)O (repeat unit) | 159.00 |
| *CC(COC(=O)CCCCCCCCCCN1C(=O)C2C3C=CC(C3)C2C1=O)O* (repeat unit) | -31.00 |
| *CC(*)CNc1ccc([N+](=O)[O-])cc1 (repeat unit) | 144.00 |
| *CC(*)(C)C(=O)OCC1(CC)COC1 (repeat unit) | 105.00 |
| *CC(C)CCC(C)CNC(=O)c1cc(C(=O)N*)cc(C(C)(C)C)c1 (repeat unit) | 149.00 |
| *OC1CCCCC1* (repeat unit) | 68.50 |
| *CC1CCC(COC(=O)CCC(=O)O*)CC1 (repeat unit) | -1.00 |
| *CC(*)C(=O)OC(Cl)C(Cl)(Cl)Cl (repeat unit) | 70.50 |
| *CCCCCCCCCOC(=O)CCC(=O)O* (repeat unit) | 31.00 |
| *CC(*)CC (repeat unit) [Poly(butylene)] | -36.6 ± 12 |
| *C(C)C(*)C(=O)OC12CC3CC(CC(C3)C1)C2 (repeat unit) | 236.50 |
| *CC(*)(C)C(=O)OC(OCC)C(F)(F)F (repeat unit) | 60.00 |
| *C(F)(F)C(*)(F)Cl (repeat unit) [Poly(chlorotrifluoroethylene)] | 69.47 ± 25 |
| *Oc1ccc(NC(=O)c2ccc(P(=O)(c3ccccc3)c3ccc(C(=O)Nc4ccc(*)cc4)cc3)cc2)cc1 (repeat unit) | 254.00 |
| *c1ccc(Oc2ccc(Oc3ccc(N4C(=O)c5ccc(Oc6c(C)cc(C(C)(C)c7cc(C)c(Oc8ccc9c(c8)C(=O)N(*)C9=O)c(C)c7)cc6C)cc5C4=O)cc3)c(C(C)(C)C)c2)cc1 (repeat unit) | 244.00 |
| *NC1CCC(CC2CCC(NC(=O)CCCCCCCCC(*)=O)CC2)CC1 (repeat unit) | 144.00 |
| *CCC[Si](*)(C)c1ccc(N(C)C)cc1 (repeat unit) | 6.50 |
| *c1ccc(-c2cc(-c3ccc(-c4ccccc4)cc3)cc(-c3ccc(N4C(=O)c5ccc(NC(=O)Nc6ccc(Oc7ccc(NC(=O)Nc8ccc9c(c8)C(=O)N(*)C9=O)cc7)cc6)cc5C4=O)cc3)n2)cc1 (repeat unit) | 241.00 |
| *CC(*)Cc1ccccc1C (repeat unit) | 80.00 |
| *c1c(C)cc(-c2cc(C)c(N3C(=O)c4cccc(Oc5c(C)cc(-c6cc(C)c(Oc7cccc8c7C(=O)N(*)C8=O)c(C)c6)cc5C)c4C3=O)c(C)c2)cc1C (repeat unit) | 327.00 |
| *CCCCCCCCCCCCN1C(=O)c2cccc3c(-c4ccc5c6c(cccc46)C(=O)N(CCCCCCCCCCCCN4C(=O)c6ccc7c8ccc9c%10c(ccc(c%11ccc(c6c7%11)C4=O)c%108)C(=O)N(*)C9=O)C5=O)ccc(c23)C1=O (repeat unit) | 210.00 |
| *C(=O)Nc1ccc(Oc2ccc(C(C)(C)c3ccc(Oc4ccc(NC(=O)c5ccc6c(c5)C(=O)N(c5ccc(Oc7cccc8c(Oc9ccc(N%10C(=O)c%11ccc(*)cc%11C%10=O)cc9)cccc78)cc5)C6=O)cc4)cc3)cc2)cc1 (repeat unit) | 235.00 |
| *Oc1ccc(C(=O)OCCN(CCOC(=O)c2ccc(OC3(F)C(*)(F)C(F)(F)C3(F)F)cc2)c2ccc(/C=C/C3=CC(=C(C#N)C#N)CC(C)(C)C3)cc2)cc1 (repeat unit) | 143.00 |
| *c1ccc(-c2cc(-c3ccc(-c4ccccc4)cc3)cc(-c3ccc(N4C(=O)c5ccc(NC(=O)Nc6cccc(NC(=O)Nc7ccc8c(c7)C(=O)N(*)C8=O)n6)cc5C4=O)cc3)n2)cc1 (repeat unit) | 248.00 |
| *c1cccc(P(=O)(c2ccccc2)c2cccc(-n3c(=O)c4cc5c(=O)n(*)c(=O)c5c(-c5cc(C(F)(F)F)cc(C(F)(F)F)c5)c4c3=O)c2)c1 (repeat unit) | 299.00 |

Other lines, results leading:

| glass transition temperature [°C] | Structure (SMILES) |
| --- | --- |
| 288.00 | *C(=O)Nc1c(C)cc(C)c(NC(=O)c2ccc3c(c2)C(=O)N(c2c(C)cc(C)c(N4C(=O)c5ccc(*)cc5C4=O)c2C)C3=O)c1C (repeat unit) |
| 310.00 | *c1ccc2c(c1)C(=O)N(c1ccc(C(C)(C)c3ccc(N4C(=O)c5ccc(C(*)(C(F)(F)F)C(F)(F)F)cc5C4=O)cc3)cc1)C2=O (repeat unit) |
| 115.00 | *CC(*)c1cc(C(=O)Oc2ccc(OC)cc2)ccc1C(=O)Oc1ccc(OC)cc1 (repeat unit) |
| 235.00 | *c1ccc(Oc2ccc(S(=O)(=O)c3ccc(Oc4ccc(-c5cc(*)n(-c6ccccc6)n5)cc4)cc3)cc2)cc1 (repeat unit) |
| 278.50 | *Oc1ccc(S(=O)(=O)c2ccc(Oc3ccc(C4(c5ccc(*)cc5)c5ccccc5-c5ccccc54)cc3)cc2)cc1 (repeat unit) |
| 282.00 | *C(=O)Nc1ccc(Oc2ccc(NC(=O)c3ccc4c(c3)C(=O)N(c3ccc(Oc5ccc(N6C(=O)c7ccc(*)cc7C6=O)cc5)cc3)C4=O)cc2)cc1 (repeat unit) |
| 112.00 | *CC(O)COc1ccc(C(C)(C)c2ccc(OCC(O)COc3ccc(NC(=O)CCCCC(=O)Nc4ccc(O*)cc4)cc3)cc2)cc1 (repeat unit) |
| 274.00 | *c1ccc(-c2ccc(N3C(=O)c4ccc(Oc5ccc(Oc6ccc7c(c6)C(=O)N(*)C7=O)cc5)cc4C3=O)c(OC)c2)cc1OC (repeat unit) |
| 67.00 | *O[Si](C)(C)c1ccc(-c2ccc([Si](*)(C)C)cc2)cc1 (repeat unit) |
| 235.00 | *CCCCCCCCCCc1ccc(-c2c(-c3ccccc3)cc(-c3ccc(-c4cc(-c5ccccc5)c(-c5ccc(*)cc5)c(-c5ccccc5)c4-c4ccccc4)cc3)c(-c3ccccc3)c2-c2ccccc2)cc1 (repeat unit) |
| 329.00 | *c1ccc(Nc2nc(Nc3ccc(-c4nc5cc(-c6ccc7[nH]c(*)nc7c6)ccc5[nH]4)cc3)nc(N(c3ccccc3)c3ccccc3)n2)cc1 (repeat unit) |
| 103.60 | *CC(*)c1cc(C(=O)Oc2ccc(OCCCC)cc2)ccc1C(=O)Oc1ccc(OCCCC)cc1 (repeat unit) |
| 279.50 | *C(=O)Nc1ccc(Cc2ccc(N3C(=O)c4ccc(*)cc4C3=O)cc2)cc1 (repeat unit) |
| 25.00 | *CCCCC(c1ccc(O)cc1)C(*)c1ccc(O)cc1C (repeat unit) |
| 108.00 | *Oc1c(C)cc(-c2cc(C)c(OC(=O)CCCCC(*)=O)c(C)c2)cc1C (repeat unit) |
| 8.00 | *CCOC(=O)CCCCC(=O)OCCOC(=O)c1ccc(C(=O)O*)cc1 (repeat unit) |
| 70.00 | *Oc1ccc(CC(NC(=O)CCc2ccc(OC(=O)CCCCC(*)=O)cc2)C(=O)OC)cc1 (repeat unit) |

| glass transition temperature [°C] | Structure (SMILES) |
| --- | --- |
| 284.10 | *Nc1ccc(C(c2ccc(NC(=O)c3cc(C(*)=O)cc(C(C)(C)C)c3)cc2)(C(F)(F)F)C(F)(F)F)cc1 (repeat unit) |
| 250.00 | *CCCCCCc1ccc(-c2c(-c3ccccc3)cc(-c3ccc(-c4cc(-c5ccccc5)c(-c5ccc(*)cc5)c(-c5ccccc5)c4-c4ccccc4)cc3)c(-c3ccccc3)c2-c2ccccc2)cc1 (repeat unit) |
| 74.00 | *c1ccc(C(=O)OCCCCCCCCCCOc2ccc(/C=C3\CCCC/C(=C\c4ccc(OCCCCCCCCCCOC(=O)c5ccc(-c6nnc(*)o6)cc5)cc4)C3=O)cc2)cc1 (repeat unit) |
| 45.00 | *CNC(=O)OC(c1ccco1)C(OC(=O)NCc1ccc(C(C)(C)c2ccc(*)o2)o1)c1ccco1 (repeat unit) |
| 213.00 | *c1ccc(Oc2ccc(/C=C/c3ccc(Oc4ccc(-c5nnc(*)o5)cc4)c4ccccc34)cc2)cc1 (repeat unit) |
| 229.00 | *c1ccc(Oc2c(C)cc(C(c3cccnc3)c3cc(C)c(Oc4ccc(N5C(=O)CC(Nc6ccc(NC7CC(=O)N(*)C7=O)cc6)C5=O)cc4)c(C)c3)cc2C)cc1 (repeat unit) |
| 285.00 | *c1cccc(Cc2cccc(N3C(=O)c4ccc([Si](C)(C)c5ccc(-c6ccc([Si](C)(C)c7ccc8c(c7)C(=O)N(*)C8=O)cc6)cc5)cc4C3=O)c2)c1 (repeat unit) |
| 178.00 | *CCCC(=O)Nc1ccc(Oc2ccc(Oc3ccc(NC(=O)CCCN4C(=O)c5ccc(C(=O)c6ccc7c(c6)C(=O)N(*)C7=O)cc5C4=O)cc3)cc2)cc1 (repeat unit) |
| 235.40 | *c1ccc2c(c1)C(=O)N(c1ccc(C(C)(C)c3ccc(C(C)(C)c4ccc(N5C(=O)c6ccc(C(*)(C(F)(F)F)C(F)(F)F)cc6C5=O)cc4)cc3)cc1)C2=O (repeat unit) |
| 1.00 | *c1ccc(-c2ccc(-c3ccc(-c4ccc([Si](*)(CCCC)CCCC)s4)s3)s2)s1 (repeat unit) |
| 44.00 | *CCCNC(=O)C(Cc1ccccc1)NC(=O)CCCCCCCCC(=O)NC(Cc1ccccc1)C(=O)NCCCOCCOCCO* (repeat unit) |
| 94.50 | *CCCCCCCCCCn1c2ccccc2c2cc(/C=C(\C#N)C(=O)OCCCCCCOC(=O)/C(C#N)=C/c3ccc4c(c3)c3ccccc3n4*)ccc21 (repeat unit) |
| 80.00 | *CC(C)(C)COC(=O)c1ccc(/C=C/c2ccc(C(=O)O*)cc2)cc1 (repeat unit) |
| 140.00 | *CC(O)COc1ccc(C(C)(C)c2ccc(OCC(O)COc3ccc(S(=O)(=O)c4ccc(O*)cc4)cc3)cc2)cc1 (repeat unit) |
| 199.70 | *Oc1ccc(S(=O)(=O)c2ccc(Oc3ccc(C(c4ccc(*)cc4)(C(F)(F)F)C(F)(F)F)cc3)cc2)cc1 (repeat unit) |
| 45.00 | *Oc1cc(OC(=O)c2ccc(OCCCC)cc2)c(OC(=O)CCCCCC(*)=O)cc1OC(=O)c1ccc(OCCCC)cc1 (repeat unit) |
| 49.00 | *CCCS(=O)(=O)CCCCS(=O)(=O)CCCOC(=O)c1ccccc1C(=O)O* (repeat unit) |
